Our source for the MIC, microsomal CLint and half-life values is paper doi:10.1101/2024.09.05.611349v1 (biorxiv, 2024).

One data set has as its system S. aureus ATCC 29213. The data set is described as follows: microbe, parasite or virus in culture. The note with it: Staphylococcus aureus, ATCC29213, read-out: MIC (µg/mL).
Data set [1] is described as follows: in vitro. The note with it: mouse, liver microsomes.
The nature of data set [2]: in vitro. Conditions: mouse, liver microsomes. This is another data set of the same source. Background: Microsomes from liver hold many membrane-bound enzymes, among them those of drug oxidation.
A short description of data set [3]: in vitro. Conditions: mouse, plasma.

The structures appear in SMILES notation. In brackets after ≈: the same amount, converted by molar mass. Some results are limits rather than exact numbers.

In general, microsomal CLint refers to the capacity of the preparation to metabolise the compound, expressed as a volume cleared per time. Low values mean slow turnover, high ones rapid turnover. Usually half-life stands for the time in which the quantity being followed falls by half. Higher therefore signals slow decline.

In the case of `CC(=O)NC(=S)NNC(=O)c1ccc2ccccc2c1` [1t], in the data set with S. aureus ATCC 29213, the MIC was 6.25 µg/mL (≈ 21.8 µM). Still for that read-out and setting: with `CCCOc1ccc(C(=O)NNC(=S)NC(C)=O)cc1` [B5] the figure was 6.25 µg/mL (≈ 21.2 µM); with `CCCCCCOc1ccc(C(=O)NNC(=S)NC(C)=O)cc1` [1c, N-(2-(4-(n-hexoxy)benzoyl)hydrazine-1-carbonothioyl)acetamide], 1.56 µg/mL (≈ 4.62 µM). In the case of `CCCCCOc1ccc(C(=O)NNC(=S)NC(C)=O)nc1` [1o], the MIC with S. aureus ATCC 29213 worked out at 25 µg/mL (≈ 77.1 µM). Regarding `CC(=O)NC(=S)NNC(=O)c1cccc(-c2ccccc2)c1` [1s], in the data set on S. aureus ATCC 29213, the MIC came to 3.12 µg/mL (≈ 9.96 µM). The same measure, in the same setting: with `CCCCCOc1ccc(CC(=O)NNC(=S)NC(C)=O)cc1` [1p] the figure was 25 µg/mL (≈ 74.1 µM). Same read-out and setting: with `CCCCCOc1ccc(C(=O)NNC(=S)NC(C)=O)cc1OCCCCC` [1h] the figure was 6.25 µg/mL (≈ 15.3 µM). In “in vitro [1]”, `COc1ccc2[nH]c([S+]([O-])Cc3ncc(C)c(OC)c3C)nc2c1` (centres unmarked) [Omeprazole] gave a microsomal CLint of 143 µL/min/mg. Moreover, the half-life in “in vitro [2]” was 9.7 min.

In the case of `CC(=O)NC(=S)NNC(=O)c1ccc(Oc2ccccc2)cc1` [1n], the MIC with S. aureus ATCC 29213 was found to be 3.12 µg/mL (≈ 9.47 µM). `COc1ccc2c(c1)[C@]13CCCC[C@@H]1[C@H](C2)N(C)CC3` [Dextromethorphan] displayed a microsomal CLint in the data set “in vitro [1]” of 179 µL/min/mg. Further, the half-life in “in vitro [2]” worked out at 7.7 min. For `CCCCCOc1ccc(C(=O)NNC(=S)NC(C)=O)cc1O` [1i], the MIC with S. aureus ATCC 29213 worked out at 25 µg/mL (≈ 73.7 µM). For `CCCCCOc1ccc(C(=O)NNC(=S)NC(C)=O)c(C)c1` [1k], in the data set with S. aureus ATCC 29213, the MIC was determined as 3.12 µg/mL (≈ 9.25 µM). Still for that read-out and setting: with `CC(=O)NC(=S)NNC(=O)c1ccc(C2CC2)cc1` [1u] the figure was 3.12 µg/mL (≈ 11.2 µM); with `CCCCCCCCCCCOc1ccc(C(=O)NNC(=S)NC(C)=O)cc1` [1d], 100 µg/mL (≈ 245 µM). On the same count and under the same terms, with `CC(=O)NC(=S)NNC(=O)c1ccc(OC2CCCCC2)cc1` [1m] the figure was 1.56 µg/mL (≈ 4.65 µM). `COCCCOc1ccc(C(=O)NNC(=S)NC(C)=O)cc1` [1f]: the MIC in the data set on S. aureus ATCC 29213 was more than 100 µg/mL. `CC(C)[N+](C)(CCOC(=O)C1c2ccccc2Oc2ccccc21)C(C)C` [Propantheline bromide] showed a half-life in “in vitro [3]” of 38.3 min. `CC(=O)NC(=S)NNC(=O)c1ccc(N2CCOCC2)cc1` [1x]: the MIC with S. aureus ATCC 29213 stood at 100 µg/mL (≈ 310 µM).

As to `CCC1CCC(c2ccc(C(=O)NNC(=S)NC(C)=O)cc2)CC1` (centres unmarked) [1w, N-(2-(4-(4-ethylcyclohexyl)benzoyl)hydrazine-1-carbonothioyl)acetamide], the MIC in the data set with S. aureus ATCC 29213 amounted to 0.2 µg/mL (≈ 0.576 µM). `CCCCCOc1ccc(CCC(=O)NNC(=S)NC(C)=O)cc1` [1q]: the MIC in the data set on S. aureus ATCC 29213 was more than 100 µg/mL.

`CCCCOc1ccc(C(=O)NNC(=S)NC(C)=O)cc1` [1a]: the MIC in the data set with S. aureus ATCC 29213 worked out at 1.56 µg/mL (≈ 5.04 µM). For `O=C(O)Cc1ccccc1Nc1c(Cl)cccc1Cl` [Diclofenac], the microsomal CLint in “in vitro [1]” was 121 µL/min/mg. In the data set “in vitro [2]”, this compound registered a half-life of 11.5 min. As to `CC(=O)NC(=S)NNC(=O)c1ccc(O)c(O)c1` [1j], the MIC with S. aureus ATCC 29213 is 100 µg/mL (≈ 371 µM). Same read-out and setting: with `CC(=O)NC(=S)NNC(=O)c1ccc(OCCCC(C)C)cc1` [1e] the figure was 3.12 µg/mL (≈ 9.25 µM). The same measure, in the same setting: with `CC(=O)NC(=S)NNC(=O)c1ccc(C2CCCCC2)cc1` [1v, N-(2-(4-cyclohexylbenzoyl)hydrazine-1-carbonothioyl)acetamide] the figure was 0.39 µg/mL (≈ 1.22 µM); with `CC(=O)NC(=S)NNC(=O)c1ccc(-c2ccccc2)cc1` [1r], 1.56 µg/mL (≈ 4.98 µM).
